Measurements: patent US7767716B2, “Acyl hydrazines as kinase inhibitors, in particular for SGK” (Merck Patent GmbH, priority 2005, dated 2010)
Where “and” joins values, the source holds several entries; their conditions need not be identical. Equal values may be shown once.

melting point	SMILES
248 to 249 °C	O=C(Cc1cccc(O)c1)NNC(=O)c1cc([N+](=O)[O-])cc([N+](=O)[O-])c1
233 to 235 °C	O=C(Cc1cccc(O)c1)NNC(=O)c1ccc(O)cc1O [compound 1]
199 to 200 °C	O=C(Cc1cccc(O)c1)NNC(=O)c1ccc(OCc2ccccc2)cc1 [compound 2]
207 to 208 °C	O=C(Cc1cccc(O)c1)NNC(=O)c1ccc(O)cc1 [compound 3]
152 to 153 °C	O=C(Cc1cccc(O)c1)NNC(=O)c1cccc(OCc2ccccc2)c1 [compound 4]
214 to 215 °C	O=C(Cc1cccc(O)c1)NNC(=O)c1ccccc1O [compound 5]
224 to 225 °C	O=C(Cc1cccc(O)c1)NNC(=O)c1cccc(O)c1 [compound 6]
162 to 164 °C	O=C(Cc1cccc(O)c1)NNC(=O)c1ccc(OCc2ccccc2)cc1Cl [compound 7]
165 to 166 °C	O=C(Cc1cccc(O)c1)NNC(=O)c1ccc(O)cc1Cl [compound 8]
174 to 175 °C	COc1cc(Cl)c(C(=O)NNC(=O)Cc2cccc(O)c2)cc1OC [compound 9]
199 to 200 °C	COc1cc(I)c(C(=O)NNC(=O)Cc2cccc(O)c2)cc1OC [compound 10]
226 to 227 °C	COc1cc(C(=O)NNC(=O)Cc2cccc(O)c2)c([N+](=O)[O-])cc1OC [compound 11]
198 to 199 °C	COc1cc(F)c(C(=O)NNC(=O)Cc2cccc(O)c2)c(F)c1 [compound 12]
171 to 172 °C	COc1ccc(C(=O)NNC(=O)Cc2cccc(O)c2)c(C)c1 [compound 13]
193 to 194 °C	COc1cc(OCc2ccccc2)ccc1C(=O)NNC(=O)Cc1cccc(O)c1 [compound 14]
212 to 213 °C	O=C(Cc1cccc(O)c1)NNC(=O)c1cc(Cl)ccc1Br [compound 15]
189 to 190 °C	O=C(Cc1cccc(O)c1)NNC(=O)c1ccc(OC(F)(F)F)cc1 [compound 16]
181 to 182 °C	COc1ccccc1C(=O)NNC(=O)Cc1cccc(O)c1 [compound 17]
156 to 157 °C	Cc1cccc(C(=O)NNC(=O)Cc2cccc(O)c2)c1 [compound 18]
201 to 202 °C	COC(=O)c1ccc(C(=O)NNC(=O)Cc2cccc(O)c2)cc1 [compound 19]
179 °C	O=C(Cc1cccc(O)c1)NNC(=O)c1cccc([N+](=O)[O-])c1 [compound 20]

melting point	SMILES
154 to 155 °C	O=C(Cc1cccc(O)c1)NNC(=O)c1ccccc1F [compound 21]
175 to 176 °C	Cc1ccc(C(=O)NNC(=O)Cc2cccc(O)c2)cc1 [compound 22]
172 °C	O=C(Cc1cccc(O)c1)NNC(=O)c1ccccc1Cl [compound 23]
183 to 184 °C	O=C(Cc1cccc(O)c1)NNC(=O)c1cccc(Cl)c1 [compound 24]
202 to 203 °C	O=C(Cc1cccc(O)c1)NNC(=O)c1ccc(Cl)cc1Cl [compound 25]
190 to 191 °C	O=C(Cc1cccc(O)c1)NNC(=O)c1ccccc1I [compound 27]
229 °C	O=C(Cc1cccc(O)c1)NNC(=O)c1ccc(Br)cc1 [compound 28]
197 to 198 °C	COc1ccc(C(=O)NNC(=O)Cc2cccc(O)c2)c(OC)c1 [compound 29]
197 to 198 °C	Cc1ccccc1C(=O)NNC(=O)Cc1cccc(O)c1 [compound 30]
182 to 183 °C	O=C(Cc1cccc(O)c1)NNC(=O)c1ccc(F)cc1 [compound 31]
201 to 202 °C	O=C(Cc1cccc(O)c1)NNC(=O)c1ccc2ccccc2c1 [compound 32]
194 to 195 °C	O=C(Cc1cccc(O)c1)NNC(=O)c1cccc(Br)c1 [compound 33]
210 to 211 °C	O=C(Cc1cccc(O)c1)NNC(=O)c1cccc2ccccc12 [compound 34]
208 to 209 °C	COc1cc(O)ccc1C(=O)NNC(=O)Cc1cccc(O)c1 [compound 35]
158 to 159 °C	COc1ccc(C(=O)NNC(=O)Cc2cccc(O)c2)cc1 [compound 36]
176 to 177 °C	O=C(Cc1cccc(O)c1)NNC(=O)c1cccc(F)c1 [compound 37]
191 to 192 °C	O=C(Cc1cccc(O)c1)NNC(=O)c1c(F)cccc1F [compound 38]
181.5 to 182.5 °C	N#Cc1cccc(C(=O)NNC(=O)Cc2cccc(O)c2)c1 [compound 39]
220 to 221 °C	O=C(Cc1cccc(O)c1)NNC(=O)c1cccc(Cl)c1Cl [compound 40]
164 °C	O=C(Cc1cccc(O)c1)NNC(=O)c1ccc(F)c(F)c1 [compound 41]
130 to 132 °C	CCOc1cccc(C(=O)NNC(=O)Cc2cccc(O)c2)c1 [compound 42]

melting point	SMILES
183 to 184 °C	CC(C)(C)c1ccc(C(=O)NNC(=O)Cc2cccc(O)c2)cc1 [compound 43]
155 to 156 °C	CCc1ccc(C(=O)NNC(=O)Cc2cccc(O)c2)cc1 [compound 44]
148 to 150 °C	CCOc1ccc2ccccc2c1C(=O)NNC(=O)Cc1cccc(O)c1 [compound 45]
165 to 166 °C	O=C(Cc1cccc(O)c1)NNC(=O)c1ccc(SC(F)(F)F)cc1 [compound 46]
195 to 196 °C	O=C(Cc1cccc(O)c1)NNC(=O)c1ccccc1C(F)(F)F [compound 47]
256 to 257 °C	O=C(Cc1cccc(O)c1)NNC(=O)c1cccc(OC(F)(F)F)c1 [compound 48]
206 to 207 °C	O=C(Cc1cccc(O)c1)NNC(=O)c1ccccc1[N+](=O)[O-] [compound 49]
223 °C	O=C(Cc1cccc(O)c1)NNC(=O)c1ccc(Cl)cc1 [compound 50]
162 to 163 °C	O=C(Cc1cccc(O)c1)NNC(=O)c1ccccc1 [compound 51]
154 to 155 °C	O=C(Cc1cccc(O)c1)NNC(=O)c1cccc(C(Cl)Cl)c1 [compound 52]
161 to 162 °C	O=C(Cc1cccc(O)c1)NNC(=O)c1cccc(C(F)(F)F)c1 [compound 53]
175 to 176 °C	O=C(Cc1cccc(O)c1)NNC(=O)c1ccc(CCl)cc1 [compound 54]
138 to 139 °C	COc1cccc(C(=O)NNC(=O)Cc2cccc(O)c2)c1 [compound 55]
222 to 223 °C	O=C(Cc1cccc(O)c1)NNC(=O)c1ccc([N+](=O)[O-])cc1 [compound 56]
226 to 227 °C	Cc1cc(O)cc(O)c1C(=O)NNC(=O)Cc1cccc(O)c1 [compound 57]
165 to 166 °C	Cc1cc(OCc2ccccc2)cc(OCc2ccccc2)c1C(=O)NNC(=O)Cc1cccc(O)c1 [compound 58]
190 to 191 °C	CCc1cc(OCc2ccccc2)ccc1C(=O)NNC(=O)Cc1cccc(O)c1 [compound 59, N′-[2-(3-hydroxyphenyl)acetyl]-4-benzyloxy-2-ethylbenzohydrazide]
199 to 200 °C	CCc1cc(O)ccc1C(=O)NNC(=O)Cc1cccc(O)c1 [compound 60, N′-[2-(3-hydroxyphenyl)acetyl]-2-ethyl-4-hydroxybenzohydrazide]
193 to 194 °C	Cc1cc(O)c(C)c(O)c1C(=O)NNC(=O)Cc1cccc(O)c1 [compound 61]
251 °C	CCc1cc(O)cc(O)c1C(=O)NNC(=O)Cc1cccc(O)c1 [compound 62]
226 to 227 °C	O=C(Cc1cccc(O)c1)NNC(=O)c1c(O)cc(O)cc1Br [compound 63]

melting point	SMILES
194 to 195 °C	O=C(Cc1cccc(O)c1)NNC(=O)c1c(Br)cc(OCc2ccccc2)cc1OCc1ccccc1 [compound 64]
232 to 233 °C	COc1ccc(CC(=O)NNC(=O)c2c(C)cc(O)cc2O)cc1O [compound 66]
237 to 238 °C	O=C(Cc1cccc(O)c1)NNC(=O)c1c(O)cc(O)cc1O [compound 68, N′-[2-(3-hydroxyphenyl)acetyl]-2,4,6-trihydroxybenzohydrazide]
198 to 200 °C	CCCc1cc(O)cc(O)c1C(=O)NNC(=O)Cc1cccc(O)c1 [compound 69]
217 °C and 213 to 215 °C	O=C(Cc1cccc(O)c1)NNC(=O)c1c(O)cc(O)cc1Cl [compound 70, N′-[2-(3-hydroxyphenyl)acetyl]-2-chloro-4,6-dihydroxybenzohydrazide]
210 to 212 °C	O=C(Cc1cccc(O)c1)NNC(=O)c1ccc(O)cc1C(F)(F)F [compound 71]
230 to 232 °C	O=C(Cc1cccc(O)c1)NNC(=O)c1c(O)cc(O)cc1F [compound 72]
259 °C	O=C(Cc1cccc(O)c1)NNC(=O)c1c(O)cc(O)cc1Br [compound 73]
190 to 193 °C	O=C(Cc1cccc(O)c1)NNC(=O)c1ccc(O)c([N+](=O)[O-])c1 [compound 74, N′-[2-(3-hydroxyphenyl)acetyl]-4-hydroxy-3-nitrobenzohydrazide]
207 to 208 °C	Cc1cc(C(=O)NNC(=O)Cc2cccc(O)c2)ccc1O [compound 75]
154 to 157 °C	CC(C)(C)c1cc(C(=O)NNC(=O)Cc2cccc(O)c2)ccc1O [compound 76]
230 to 231 °C	O=C(Cc1cccc(O)c1)NNC(=O)c1ccc(O)c(Cl)c1 [compound 77]
264 to 265 °C	Nc1cc(C(=O)NNC(=O)Cc2cccc(O)c2)ccc1O [compound 78, N′-[2-(3-hydroxyphenyl)acetyl]-3-amino-4-hydroxybenzohydrazide]
105 to 106 °C	COc1cc(O)cc(Cl)c1C(=O)NNC(=O)Cc1cccc(O)c1 [compound 79]
269 to 270 °C	O=C(Cc1cccc(O)c1)NNC(=O)c1cc(Cl)c(O)cc1O [compound 80]
252 to 253 °C	O=C(Cc1cccc(O)c1)NNC(=O)c1ccc(O)c(Cl)c1O [compound 81]
251 °C	Cc1c(O)ccc(C(=O)NNC(=O)Cc2cccc(O)c2)c1C [compound 82]
230 °C	CCCCCc1cc(O)cc(O)c1C(=O)NNC(=O)Cc1cccc(O)c1 [compound 83]
